Assay results published in patent US10851082B2, “Substituted aromatic n-heterocyclic compounds as inhibitors of mitogen-activated protein kinase interacting kinase 1 (MNK1) and 2 (MNK2)” (Northwestern University, priority 2015, dated 2020).
Like-named read-outs stand apart in the source and are kept apart here.

Legend:
[1] = tested on: U937 cells; assay: Cell viability assay (CellTiter-Glo), U937; format: cell-based; settings: Homo sapiens
Procedure: (§1) To measure the ability of the new Mnk1/2 inhibitors to kill cancer cells in vitro, U937 or MV4-11 cells were incubated with different concentrations of test compounds and analyzed for apoptosis and cell viability at 5 and 24 hours post-treatment.

[2] = target: Mnk1; assay: Cellular inhibition of Mnk1, flow cytometry of phospho-eIF-4E (Ser209), MV4-11 cells; format: cell-based
Procedure: (§2) To evaluate inhibition of Mnk1 in cells, we utilized a flow cytometry-based assay based on activation of eIF-4E, the downstream target of Mnk1. The assay utilizes flow cytometry to quantitatively measure the amount of eIF-4E that is phosphorylated at residue Ser209 in cell lysate from U937 or MV4-11 cell lines. Cells grown in the presence of serum were treated with vehicle or test compounds across a range of concentrations. Levels of phospho-eIF-4E were measured and IC50 values were determined by logistic regression to quantify the potency of each compound.

[3] = target: Mnk1; assay: Cellular inhibition of Mnk1, flow cytometry of phospho-eIF-4E (Ser209), U937 cells; format: cell-based
Procedure: as §2

[4] = tested on: MV4-11 cells; assay: Cell viability assay (CellTiter-Glo), MV4-11; format: cell-based; settings: Homo sapiens
Procedure: as §1

[5] = target: T1, Mnk1 (Homo sapiens (Human), UniProt Q9BUB5); assay: Mnk1 kinase inhibition, ADP-Glo ADP monitoring assay; format: biochemical
Target sequence in this assay (Q9BUB5 whole entry): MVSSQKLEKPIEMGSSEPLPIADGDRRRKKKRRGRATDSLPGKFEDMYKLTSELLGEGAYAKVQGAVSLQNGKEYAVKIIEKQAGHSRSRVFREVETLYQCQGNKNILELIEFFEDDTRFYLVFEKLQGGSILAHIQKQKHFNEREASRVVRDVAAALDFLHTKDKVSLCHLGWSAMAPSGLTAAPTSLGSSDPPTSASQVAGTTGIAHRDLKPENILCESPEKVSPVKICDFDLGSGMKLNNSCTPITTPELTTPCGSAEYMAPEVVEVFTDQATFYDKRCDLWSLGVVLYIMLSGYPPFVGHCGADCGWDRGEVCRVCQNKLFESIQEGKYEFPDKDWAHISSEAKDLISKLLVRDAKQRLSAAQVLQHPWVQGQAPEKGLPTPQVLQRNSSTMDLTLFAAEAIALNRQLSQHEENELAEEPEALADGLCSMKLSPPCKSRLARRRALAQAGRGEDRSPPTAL
Procedure: (§3) The synthesized compounds then were tested for inhibition of the kinase activity (IC50) of Mnk1 and/or Mnk2 using the ADP monitoring assay for kinases described in Zegzouti, H.; Zdanovskaia, M.; Hsiao, K.; Goueli, S. A., ADP-Glo: A Bioluminescent and homogeneous ADP monitoring assay for kinases.

[6] = target: Mnk2 (Homo sapiens (Human), UniProt Q9HBH9); assay: Mnk2 kinase inhibition, ADP-Glo ADP monitoring assay; format: biochemical; settings: ADP-Glo kinase assay
Procedure: as §3

[7] = target: T1, Mnk1; assay: Cellular inhibition of Mnk1, flow cytometry of phospho-eIF-4E (Ser209), MV4-11 cells; format: cell-based; settings: phospho-eIF-4E Ser209, flow cytometry, read-out: MV4-11 pEIF4E IC50
Target sequence in this assay (Q9BUB5 whole entry, looked up): as the sequence (Q9BUB5 whole entry) above
Procedure: as §2

[8] = target: T1, Mnk1; assay: Cellular inhibition of Mnk1, flow cytometry of phospho-eIF-4E (Ser209), U937 cells; format: cell-based; settings: phospho-eIF-4E Ser209, flow cytometry, read-out: U937 pEIF4E IC50
Target sequence in this assay (Q9BUB5 whole entry, looked up): as the sequence (Q9BUB5 whole entry) above
Procedure: as §2

[9] = U-937, U937 cells, ATP levels with CellTiter-Glo, read-out: U937 viability EC50
[10] = read-out: MV4-11 pEIF4E IC50, phospho-eIF-4E Ser209, flow cytometry
[11] = read-out: U937 pEIF4E IC50, phospho-eIF-4E Ser209, flow cytometry
[12] = MV4-11 cells, ATP levels with CellTiter-Glo, read-out: MV4-11 viability EC50
[13] = read-out: Mnk2 inhibition IC50 (+,++,+++)
[14] = read-out: MV4-11 pEIF4E cellular flow IC50 (+,++,+++), flow cytometry
[15] = read-out: U937 pEIF4E cellular flow IC50 (+,++,+++), flow cytometry
[16] = read-out: Mnk1 inhibition IC50 (+,++,+++)
[17] = U-937, read-out: U937 viability EC50
[18] = MV4-11, read-out: MV4-11 viability EC50

Sequence of Mnk2 (Q9HBH9 whole entry): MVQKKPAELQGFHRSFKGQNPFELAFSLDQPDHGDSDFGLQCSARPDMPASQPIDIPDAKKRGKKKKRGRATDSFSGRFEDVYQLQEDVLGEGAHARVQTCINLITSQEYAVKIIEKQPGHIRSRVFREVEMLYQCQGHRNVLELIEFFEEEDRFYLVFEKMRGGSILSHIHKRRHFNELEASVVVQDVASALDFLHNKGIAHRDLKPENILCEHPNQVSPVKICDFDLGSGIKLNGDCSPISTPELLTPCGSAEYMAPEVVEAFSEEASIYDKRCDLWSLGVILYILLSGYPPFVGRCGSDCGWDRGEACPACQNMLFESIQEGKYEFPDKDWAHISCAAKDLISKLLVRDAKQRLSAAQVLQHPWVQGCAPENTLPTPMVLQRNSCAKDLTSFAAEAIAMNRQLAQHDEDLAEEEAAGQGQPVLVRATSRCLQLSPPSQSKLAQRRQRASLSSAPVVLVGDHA

| EC50 [1, 9] | IC50 [2, 10] | IC50 [3, 11] | EC50 [4, 12] | IC50 ([5]; read-out: Mnk1 IC50) | IC50 ([6]; read-out: Mnk2 IC50) | SMILES | further results |
| --- | --- | --- | --- | --- | --- | --- | --- |
| 10 µM | 0.04 µM | 0.051 µM | 0.31 µM | 0.14 µM | – | c1ccc2c(c1)ncn2-c1ccnc(Nc2ccncc2)n1 [NUCC-0125585] | – |
| 3.4 µM | 0.066 µM | 0.081 µM | 0.24 µM | 6 µM | – | Clc1cccc(-n2cc(-c3ccnc(NCCc4c[nH]cn4)n3)cn2)c1 [NUCC-0054135] | – |
| 2.6 µM | – | – | 0.41 µM | – | – | N#Cc1cnc(NCCc2ccncc2)nc1-n1cnc2ccccc21 [NUCC-0176343] | – |
| > 10 µM | – | – | 0.44 µM | – | 0.046 µM | c1ccc2c(c1)ncn2-c1ccnc(N[C@H]2CCOC2)n1 [NUCC-0176148] | – |
| – | – | – | – | – | – | Clc1cnc(OCCc2ccccn2)nc1-n1cnc2ccccc21 [NUCC-0200807] | IC50 [6, 13]: < 1 µM; IC50 [2, 14]: < 1 µM; IC50 [3, 15]: < 1 µM; IC50 [5, 16]: < 1 µM |
| 13 µM | 0.035 µM | 0.042 µM | 0.19 µM | 5 µM | – | CN(C)CCNc1nccc(-c2cnn(C)c2)n1 [NUCC-0060898] | – |
| 3.4 µM | 0.066 µM | 0.081 µM | 0.24 µM | 0.33 µM | 0.049 µM | Fc1cnc(NCCc2ccncc2)nc1-n1cnc2ccccc21 [NUCC-0176281] | – |
| > 10 µM | 0.069 µM | 1.1 µM | 0.08 µM | 0.15 µM | 0.04 µM | c1ccc2c(c1)ncn2-c1ccnc(NC2CCNC2)n1 (stereo not drawn) [NUCC-0125592] | – |
| – | 0.047 µM | 0.23 µM | – | 0.9 µM | 0.095 µM | c1ccc2c(c1)ccn2-c1ccnc(NCCc2cnc[nH]2)n1 [NUCC-0060958] | – |
| – | – | – | – | – | – | Clc1cnc(OC2CCCOC2)nc1-n1cnc2ccccc21 (stereo not drawn) [NUCC-0200803] | IC50 [6, 13]: < 1 µM; IC50 [2, 14]: < 1 µM; IC50 [3, 15]: < 1 µM; IC50 [5, 16]: < 1 µM |
| – | – | – | – | – | – | N#Cc1cnc(OCCc2ccccn2)nc1-n1cnc2ccccc21 [NUCC-0200790] | IC50 [6, 13]: < 1 µM; IC50 [2, 14]: < 1 µM; IC50 [3, 15]: < 1 µM; IC50 [5, 16]: < 1 µM |
| > 10 µM | – | – | 0.62 µM | – | 0.0095 µM | c1ccc2c(c1)ncn2-c1ccnc(NC2CCOC2)n1 (stereo not drawn) [NUCC-0125583] | – |
| 10 µM | 0.1 µM | 0.14 µM | 4.5 µM | 0.093 µM | 0.028 µM | FC(F)(F)c1cnc(NCCc2ccncc2)nc1-n1cnc2ccccc21 [NUCC-0176282, 4-(1H-benzo[d]imidazol-1-yl)-N-(2-(pyridin-4-yl)ethyl)-5-(trifluoromethyl)pyrimidin-2-amine] | – |
| – | – | – | – | – | – | N#Cc1cnc(OCCc2ccncc2)nc1-n1cnc2ccccc21 [NUCC-0200786] | IC50 [6, 13]: < 1 µM; IC50 [2, 14]: < 1 µM; IC50 [3, 15]: < 1 µM; IC50 [5, 16]: < 1 µM |
| 10 µM | 0.1 µM | 0.14 µM | 4.5 µM | 10 µM | – | CCn1cncc1CNc1nccc(-c2cnn(-c3cccc(OC)c3)c2)n1 [NUCC-0054136] | – |
| > 10 µM | 0.37 µM | 0.63 µM | 1 µM | 0.53 µM | 0.072 µM | Clc1cnc(NCCc2cnc[nH]2)nc1-n1cnc2ccccc21 [NUCC-0175695] | – |

| SMILES | EC50 [1, 9] | IC50 [2, 10] | IC50 [3, 11] | EC50 [4, 12] | IC50 ([5]; read-out: Mnk1 IC50) | IC50 ([6]; read-out: Mnk2 IC50) | further results |
| --- | --- | --- | --- | --- | --- | --- | --- |
| c1ccc2c(c1)ncn2-c1ccnc(NCCc2ccncc2)n1 [NUCC-0060957] | 5.3 µM | – | – | 0.12 µM | – | – | – |
| c1cncc(CCNc2ccnc(-n3cnc4ccccc43)n2)c1 [NUCC-0176341] | – | – | – | – | 0.21 µM | 0.026 µM | EC50 [1, 17]: 13 µM; IC50 [7]: 0.035 µM; IC50 [8]: 0.042 µM; EC50 [4, 18]: 0.19 µM |
| O[C@H]1CC[C@@H](Nc2nccc(-n3cnc4ccccc43)n2)C1 [NUCC-0176164] | – | – | – | – | 0.1 µM | 0.026 µM | EC50 [1, 17]: > 10 µM; IC50 [7]: 0.036 µM; IC50 [8]: 0.062 µM; EC50 [4, 18]: 0.18 µM |
| O[C@H]1CC[C@H](Nc2nccc(-n3cnc4ccccc43)n2)C1 [NUCC-0176163] | – | – | – | – | 0.2 µM | 0.041 µM | EC50 [1, 17]: 8.1 µM; IC50 [7]: 0.074 µM; IC50 [8]: 0.075 µM; EC50 [4, 18]: 0.22 µM |
| Clc1cnc(NCCc2ccncc2)nc1-n1cnc2ccccc21 [NUCC-0175697] | 7 µM | – | – | 0.35 µM | – | – | – |
| O[C@@H]1CC[C@H](Nc2nccc(-n3cnc4ccccc43)n2)C1 [NUCC-0176144] | – | – | – | – | 0.15 µM | 0.028 µM | EC50 [1, 17]: 5.7 µM; IC50 [7]: 0.078 µM; IC50 [8]: 0.078 µM; EC50 [4, 18]: 0.17 µM |
| c1ccc2c(c1)ccn2-c1ccnc(NCCc2ccncc2)n1 [NUCC-0060954] | 2.6 µM | – | – | 0.41 µM | – | – | – |
